Laboratory results published in PMC12164026, “Plant-derived nodule-specific cysteine-rich peptides as potent antifungal agents against Cryptococcus neoformans: mechanisms of action, chimeric peptide enhancement, and immunomodulatory effects” (Current Research in Microbial Sciences, 2025).
Peptide text beside a SMILES is read from it.

Columns and labels:
[1] = system: C. neoformans IFM 5844 cells; assay: Short-term sub-MIC killing, CFU counts; assay type: cell-based, Cryptococcus neoformans; settings: for proportion of viable cells (CFU relative to control): 0.19 µM (half-MIC), YNB, 2 × 10^6 cells/mL; for reduction in colony-forming units: 30 min
Protocol: To assess the time-dependent fungicidal activity of X1-NCR247C, C. neoformans cells cultivated for 16 h at 30 °C were collected by centrifugation and washed twice with sterile distilled water. […] Following treatment, cells were pelleted by centrifugation washed with distilled water and serially diluted 10-fold and 100-fold. Fifty microliters of each dilution were plated onto solid YPD medium in triplicate.
After treatment, the cells were pelleted by centrifugation, washed with distilled water and serially diluted 10-fold and 100-fold. Fifty microliters of each dilution were spread onto solid YPD medium in triplicate. For both experimental setups colony forming unit (CFU) counts were determined after 48-hours incubation at 30 °C. The CFU values of peptide-treated samples were compared to untreated control samples, providing insights into the extent of fungal viability reduction. Three independent biological replicates were performed.

[2] = system: C. neoformans IFM 5844 cells; assay: Cell membrane permeability, calcein-AM assay by flow cytometry; assay type: cell-based, Cryptococcus neoformans; settings: half-MIC, 2 h, 30 °C, YNB
Protocol: The effect of the peptides on the cell membrane permeability of C. neoformans IFM 5844 cells was checked by flow cytometry with calcein-AM assay ([Olson, et al., 2001]). Calcein-acetoxymethyl ester (calcein-AM) is a membrane-permeable live-cell dye that, upon entering the cell, is cleaved by intracellular esterases, converting it into calcein, a membrane-impermeable fluorescent marker. The assay was carried out by suspending a total of 1 × 10^7 cells in 100 µl YNB medium containing 20 µg/mL indomethacin (Sigma-Aldrich, Saint Louis, MO, USA) and incubating them at 30 °C for 30 min to inhibit calcein transporters. Following this pre-treatment, membrane-permeable calcein-AM (Invitrogen, Waltham, MA, USA) was added to a final concentration of 5 µg/mL, and the samples were incubated at 30 °C for 3 h allowing the calcein-AM to enter the cells where esterases converted it to fluorescent calcein. After incubation, cells were washed twice with sterile distilled water and subsequently exposed to peptides at half-MIC concentrations in YNB medium for 2 h at 30 °C. Following peptide treatment, cells were washed twice with sterile distilled water, and fluorescence intensity was measured using a FlowSight® flow cytometer (Amnis-EMD Millipore) equipped with a 488-nm excitation laser. Intact cells stained with calcein-AM but not exposed to peptides served as controls. To ensure statistical reliability, four independent experiments were conducted, and fluorescence intensity was recorded from 10,000 cells per sample during each experiment.

## CSCC[C@H](NC(=O)[C@H](CCCCN)NC(=O)[C@H](Cc1ccccc1)NC(=O)[C@H](CC(N)=O)NC(=O)[C@H](CC(C)C)NC(=O)[C@@H]1CCCN1C(=O)[C@@H](N)CCCNC(=N)N)C(=O)N[C@@H](CC(C)C)C(=O)N[C@@H](CCCNC(=N)N)C(=O)N[C@@H](Cc1ccccc1)C(=O)N[C@@H](Cc1c[nH]c2ccccc12)C(=O)NCC(=O)N[C@@H](CCC(N)=O)C(=O)N[C@@H](CCC(N)=O)C(=O)N[C@@H](CCC(N)=O)C(=O)N[C@@H](CS)C(=O)N[C@@H](CCCNC(=N)N)C(=O)N[C@@H](CCCNC(=N)N)C(=O)N1CCC[C@H]1C(=O)N[C@@H](CC(C)C)C(=O)N[C@@H](Cc1ccc(O)cc1)C(=O)N[C@@H](CS)C(=O)N[C@@H](CCCNC(=N)N)C(=O)N[C@@H](CCCNC(=N)N)C(=O)N[C@@H](CCCNC(=N)N)C(N)=O [X1-NCR247C] (H-RPLNFKMLRFWGQQQCRRPLYCRRR-NH2; N-terminus assumed)
[1]; 5 min
  proportion of viable cells (CFU relative to control): 25%
[1]; 60 min
  proportion of viable cells (CFU relative to control): 5%
[1]; half-MIC (0.19 µM), p ≤ 0.001
  reduction in colony-forming units: highly significant decrease
[1]; quarter-MIC, p ≤ 0.05
  reduction in colony-forming units: notable reduction
[2]
  calcein leakage / membrane permeability disruption: slightly weaker effect
